≈ marks a conversion by molar mass, not a printed value. One block for each compound: values may come before it. Calls of active or inactive are those of the source. The rule behind the calls is not given here.
Legend:
BaF3 = experiment: Cytotoxicity against mouse BA/F3 cells assessed as reduction in cell viability incubated for 48 hrs by brightglo-luciferase reporter gene assay; type: cell-based; conditions: BaF3, 48 h
Bcr/Abl fusion protein = Bcr/Abl fusion protein (Homo sapiens, UniProt P00519); experiment: Inhibition of BCR/ABL (unknown origin) transfected in mouse Ba/F3 cells assessed as reduction in cell viability incubated for 48 hrs by brightglo-luciferase reporter gene assay; type: cell-based, BaF3
Rattus norvegicus [1] = experiment: Antitumor activity against rat RIE cells transfected with KIF5B/RET xenografted in Harlan Foxn1 nude mouse assessed as tumor regression at 10 to 60 mg/kg, po qd for 14 days; type: functional, organism-based
Rattus norvegicus [2] = experiment: Antitumor activity against rat RIE cells transfected with KIF5B/RET xenografted in Harlan Foxn1 nude mouse assessed as reduction in visible vasculature at 10 to 60 mg/kg, po qd for 14 days; type: functional, organism-based
Rattus norvegicus [3] = experiment: Antitumor activity against rat RIE cells transfected with KIF5B/RET xenografted in Harlan Foxn1 nude mouse assessed as tumor growth inhibition at 1 mg/kg, po qd for 10 days; type: functional, organism-based
Rattus norvegicus [4] = experiment: Antitumor activity against rat RIE cells transfected with KIF5B/RET xenografted in Harlan Foxn1 nude mouse assessed as tumor stasis at 3 mg/kg, po qd for 10 days; type: functional, organism-based
Rattus norvegicus [5] = experiment: Antitumor activity against rat RIE cells transfected with KIF5B/RET xenografted in Harlan Foxn1 nude mouse assessed as tumor regression at 10 mg/kg, po qd for 10 days; type: functional, organism-based
Mus musculus [6] = experiment: In vivo inhibition of KIF5B/RET transfected in rat RIE cells xenografted in Harlan Foxn1 nude mouse assessed as reduction in intratumoral RET phosphorylation at 1 to 3 mg/kg, po qd for 10 days and measured after 5 hrs post-last dose by Western blot analysis; type: functional, organism-based
LC-2-ad [7] = experiment: Antitumor activity against human LC2/ad cells xenografted in NSG mouse assessed as reduction in tumor volume at 10 mg/kg, po qd for 21 days measured following cessation of drug treatment; type: functional, organism-based
Mus musculus [8] = experiment: In vivo inhibition of KIF5B/RET transfected in rat RIE cells xenografted in Harlan Foxn1 nude mouse assessed as reduction in intratumoral RET phosphorylation at 1 to 3 mg/kg, po qd for 10 days and measured after 24 hrs post-last dose by Western blot analysis; type: functional, organism-based
[9] = AUC in BALB/c mouse at 5 mg/kg, iv measured upto 24 hrs by LC-MS/MS analysis; type: ADME, organism-based; design: dose 5 mg/kg, time < 24 hr, route intravenous; conditions: in vivo
[10] = Cmax in BALB/c mouse at 5 mg/kg, iv measured upto 24 hrs by LC-MS/MS analysis; type: ADME, organism-based; design: dose 5 mg/kg, route intravenous; conditions: in vivo
[11] = Half life in BALB/c mouse at 5 mg/kg, iv measured upto 24 hrs by LC-MS/MS analysis; type: ADME, organism-based; conditions: in vivo
[12] = Clearance in BALB/c mouse at 5 mg/kg, iv measured upto 24 hrs by LC-MS/MS analysis; type: ADME, organism-based; conditions: in vivo
[13] = Volume of distribution at steady state in BALB/c mouse at 5 mg/kg, iv measured upto 24 hrs by LC-MS/MS analysis; type: ADME, organism-based; conditions: in vivo, read-out: Vdss
LC-2-ad [14] = experiment: Cytotoxicity against human LC2/ad cells assessed as reduction in cell viability incubated for 6 days by CellTiter Glo assay; type: cell-based; conditions: 144 h
[15] = Aqueous solubility of compound at pH 6.8 incubated for 24 hrs by HPLC/UV analysis; type: physicochemical
[16] = Toxicity in CD-1 mouse assessed as marginal zone depletion in spleen at 10 mg/kg, po qd for 4 weeks by histopathological analysis; type: organism-based; conditions: in vivo, 672 h
[17] = Toxicity in CD-1 mouse assessed as neuronal changes in brain at 10 mg/kg, po qd for 4 weeks by histopathological analysis; type: organism-based; conditions: in vivo, 672 h
[18] = Toxicity in CD-1 mouse assessed as changes in GI neurons at 10 mg/kg, po qd for 4 weeks by histopathological analysis; type: organism-based; conditions: in vivo, 672 h
[19] = Toxicity in CD-1 mouse assessed as changes in lung at 10 mg/kg, po qd for 4 weeks by histopathological analysis; type: organism-based; conditions: in vivo, 672 h
[20] = Toxicity in CD-1 mouse assessed as pancreatic vacuolation at 10 mg/kg, po qd for 4 weeks by histopathological analysis; type: organism-based; conditions: in vivo, 672 h
[21] = Toxicity in CD-1 mouse assessed as decrease in germinal centre cellularity in lymph nodes at 10 mg/kg, po qd for 4 weeks by histopathological analysis; type: organism-based; conditions: in vivo, 672 h
[22] = Clearance in BALB/c mouse at 2 mg/kg, iv measured upto 24 hrs by LC-MS/MS analysis; type: ADME, organism-based; conditions: in vivo
[23] = Volume of distribution at steady state in BALB/c mouse at 2 mg/kg, iv measured upto 24 hrs by LC-MS/MS analysis; type: ADME, organism-based; conditions: in vivo, read-out: Vdss
[24] = Half life in BALB/c mouse at 2 mg/kg, iv measured upto 24 hrs by LC-MS/MS analysis; type: ADME, organism-based; conditions: in vivo
[25] = AUC in BALB/c mouse at 2 mg/kg, iv measured upto 24 hrs by LC-MS/MS analysis; type: ADME, organism-based; design: dose 2 mg/kg, time < 24 hr, route intravenous; conditions: in vivo
[26] = Cmax in BALB/c mouse at 2 mg/kg, iv measured upto 24 hrs by LC-MS/MS analysis; type: ADME, organism-based; design: dose 2 mg/kg, route intravenous; conditions: in vivo
[27] = Half life in BALB/c mouse at 10 mg/kg, po measured upto 24 hrs by LC-MS/MS analysis; type: ADME, organism-based; conditions: in vivo
[28] = AUC in BALB/c mouse at 10 mg/kg, po measured upto 24 hrs by LC-MS/MS analysis; type: ADME, organism-based; design: dose 10 mg/kg, time < 24 hr, route oral; conditions: in vivo
[29] = Cmax in BALB/c mouse at 10 mg/kg, po measured upto 24 hrs by LC-MS/MS analysis; type: ADME, organism-based; design: dose 10 mg/kg, route oral; conditions: in vivo
[30] = Oral bioavailability in BALB/c mouse at 10 mg/kg measured upto 24 hrs by LC-MS/MS analysis; type: ADME, organism-based; conditions: in vivo
[31] = target: T1, Voltage-gated inwardly rectifying potassium channel KCNH2 (Homo sapiens, UniProt Q12809); experiment: Displacement of [3H]-dofetilide from human ERG expressed in CHO cells incubated for 90 mins by microbeta scintillation counting method; type: cell-based
[32] = target: T1, Voltage-gated inwardly rectifying potassium channel KCNH2; experiment: Inhibition of human ERG expressed in human embryonic kidney cells by manual patch clamp assay; type: cell-based
[33] = Toxicity in Harlan Foxn1 nude mouse xenografted with rat RIE cells transfected with KIF5B/RET assessed as lungs hemorrhaging at 10 to 60 mg/kg, po administered bid for 8 days; type: organism-based; conditions: in vivo, 192 h
[34] = Toxicity in Harlan Foxn1 nude mouse xenografted with rat RIE cells transfected with KIF5B/RET assessed as hypothermia at 10 to 60 mg/kg, po administered bid for 8 days; type: organism-based; conditions: in vivo, 192 h
[35] = Toxicity in Harlan Foxn1 nude mouse xenografted with rat RIE cells transfected with KIF5B/RET assessed as lungs hemorrhaging at 3 mg/kg, po administered bid for 8 days; type: organism-based; conditions: in vivo, 192 h
[36] = Toxicity in Harlan Foxn1 nude mouse xenografted with rat RIE cells transfected with KIF5B/RET assessed as hypothermia at 3 mg/kg, po administered bid for 8 days; type: organism-based; conditions: in vivo, 192 h

Chain of Bcr/Abl fusion protein (P00519 whole entry, the tested form may be a part): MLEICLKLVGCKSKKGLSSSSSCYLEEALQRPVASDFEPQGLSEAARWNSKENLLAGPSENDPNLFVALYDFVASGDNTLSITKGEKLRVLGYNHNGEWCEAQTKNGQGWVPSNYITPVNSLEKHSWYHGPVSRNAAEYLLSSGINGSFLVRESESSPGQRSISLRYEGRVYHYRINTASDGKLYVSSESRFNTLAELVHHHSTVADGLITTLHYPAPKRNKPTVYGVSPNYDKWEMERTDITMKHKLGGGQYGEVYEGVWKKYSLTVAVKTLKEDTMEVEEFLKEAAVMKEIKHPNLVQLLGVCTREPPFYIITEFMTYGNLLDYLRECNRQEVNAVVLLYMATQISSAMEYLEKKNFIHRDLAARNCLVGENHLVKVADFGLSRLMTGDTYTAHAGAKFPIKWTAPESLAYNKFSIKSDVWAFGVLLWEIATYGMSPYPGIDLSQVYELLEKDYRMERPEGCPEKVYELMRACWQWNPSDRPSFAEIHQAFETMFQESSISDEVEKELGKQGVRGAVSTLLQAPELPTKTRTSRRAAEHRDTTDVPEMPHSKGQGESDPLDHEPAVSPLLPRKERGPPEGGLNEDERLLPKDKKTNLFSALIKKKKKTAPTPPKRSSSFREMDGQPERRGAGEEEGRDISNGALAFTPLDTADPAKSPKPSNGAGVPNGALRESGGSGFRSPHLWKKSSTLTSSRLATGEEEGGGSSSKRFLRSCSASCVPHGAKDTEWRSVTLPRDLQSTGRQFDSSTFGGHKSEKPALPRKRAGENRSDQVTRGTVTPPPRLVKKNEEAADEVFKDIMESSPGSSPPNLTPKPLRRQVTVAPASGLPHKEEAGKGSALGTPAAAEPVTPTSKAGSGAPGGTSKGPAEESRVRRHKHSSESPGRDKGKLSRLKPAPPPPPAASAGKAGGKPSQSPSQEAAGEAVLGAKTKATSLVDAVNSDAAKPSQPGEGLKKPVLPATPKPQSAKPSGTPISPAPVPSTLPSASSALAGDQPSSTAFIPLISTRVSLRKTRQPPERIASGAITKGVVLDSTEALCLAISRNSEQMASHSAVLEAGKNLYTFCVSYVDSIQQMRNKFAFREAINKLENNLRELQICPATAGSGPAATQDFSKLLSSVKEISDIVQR
Chain of Bcr/Abl fusion protein (P11274 whole entry, further chain, the tested form may be a part): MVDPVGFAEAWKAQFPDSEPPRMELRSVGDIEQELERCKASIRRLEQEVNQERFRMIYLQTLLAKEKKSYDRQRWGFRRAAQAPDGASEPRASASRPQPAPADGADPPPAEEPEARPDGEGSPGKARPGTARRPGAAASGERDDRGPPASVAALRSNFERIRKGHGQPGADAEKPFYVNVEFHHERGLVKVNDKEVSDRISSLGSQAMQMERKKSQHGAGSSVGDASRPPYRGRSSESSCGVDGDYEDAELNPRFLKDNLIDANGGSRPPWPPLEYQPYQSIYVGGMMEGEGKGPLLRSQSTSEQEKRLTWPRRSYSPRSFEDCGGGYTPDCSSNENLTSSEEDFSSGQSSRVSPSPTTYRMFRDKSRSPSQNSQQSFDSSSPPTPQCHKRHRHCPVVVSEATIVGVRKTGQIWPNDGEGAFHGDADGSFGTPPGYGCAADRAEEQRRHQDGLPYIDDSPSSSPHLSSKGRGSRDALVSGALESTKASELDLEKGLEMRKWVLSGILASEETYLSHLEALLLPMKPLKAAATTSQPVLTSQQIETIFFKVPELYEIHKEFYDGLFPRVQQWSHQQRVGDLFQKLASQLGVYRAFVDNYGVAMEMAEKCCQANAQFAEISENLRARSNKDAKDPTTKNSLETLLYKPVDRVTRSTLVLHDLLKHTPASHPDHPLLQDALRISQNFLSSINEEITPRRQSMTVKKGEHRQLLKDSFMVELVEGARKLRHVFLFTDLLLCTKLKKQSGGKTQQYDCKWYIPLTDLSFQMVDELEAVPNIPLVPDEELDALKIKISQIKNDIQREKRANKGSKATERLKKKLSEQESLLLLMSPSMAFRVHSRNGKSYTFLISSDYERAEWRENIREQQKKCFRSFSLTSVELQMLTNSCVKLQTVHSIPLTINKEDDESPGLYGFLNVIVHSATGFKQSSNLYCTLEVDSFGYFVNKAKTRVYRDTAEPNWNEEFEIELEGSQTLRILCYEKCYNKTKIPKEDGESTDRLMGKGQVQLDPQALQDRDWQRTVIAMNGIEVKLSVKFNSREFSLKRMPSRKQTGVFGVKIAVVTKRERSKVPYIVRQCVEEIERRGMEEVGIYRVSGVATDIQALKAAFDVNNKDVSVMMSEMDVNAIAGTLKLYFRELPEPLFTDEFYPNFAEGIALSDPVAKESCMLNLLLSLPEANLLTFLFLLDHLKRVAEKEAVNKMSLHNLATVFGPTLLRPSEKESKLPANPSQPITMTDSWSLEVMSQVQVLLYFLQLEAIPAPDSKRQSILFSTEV
T1 sequence (Q12809 whole entry): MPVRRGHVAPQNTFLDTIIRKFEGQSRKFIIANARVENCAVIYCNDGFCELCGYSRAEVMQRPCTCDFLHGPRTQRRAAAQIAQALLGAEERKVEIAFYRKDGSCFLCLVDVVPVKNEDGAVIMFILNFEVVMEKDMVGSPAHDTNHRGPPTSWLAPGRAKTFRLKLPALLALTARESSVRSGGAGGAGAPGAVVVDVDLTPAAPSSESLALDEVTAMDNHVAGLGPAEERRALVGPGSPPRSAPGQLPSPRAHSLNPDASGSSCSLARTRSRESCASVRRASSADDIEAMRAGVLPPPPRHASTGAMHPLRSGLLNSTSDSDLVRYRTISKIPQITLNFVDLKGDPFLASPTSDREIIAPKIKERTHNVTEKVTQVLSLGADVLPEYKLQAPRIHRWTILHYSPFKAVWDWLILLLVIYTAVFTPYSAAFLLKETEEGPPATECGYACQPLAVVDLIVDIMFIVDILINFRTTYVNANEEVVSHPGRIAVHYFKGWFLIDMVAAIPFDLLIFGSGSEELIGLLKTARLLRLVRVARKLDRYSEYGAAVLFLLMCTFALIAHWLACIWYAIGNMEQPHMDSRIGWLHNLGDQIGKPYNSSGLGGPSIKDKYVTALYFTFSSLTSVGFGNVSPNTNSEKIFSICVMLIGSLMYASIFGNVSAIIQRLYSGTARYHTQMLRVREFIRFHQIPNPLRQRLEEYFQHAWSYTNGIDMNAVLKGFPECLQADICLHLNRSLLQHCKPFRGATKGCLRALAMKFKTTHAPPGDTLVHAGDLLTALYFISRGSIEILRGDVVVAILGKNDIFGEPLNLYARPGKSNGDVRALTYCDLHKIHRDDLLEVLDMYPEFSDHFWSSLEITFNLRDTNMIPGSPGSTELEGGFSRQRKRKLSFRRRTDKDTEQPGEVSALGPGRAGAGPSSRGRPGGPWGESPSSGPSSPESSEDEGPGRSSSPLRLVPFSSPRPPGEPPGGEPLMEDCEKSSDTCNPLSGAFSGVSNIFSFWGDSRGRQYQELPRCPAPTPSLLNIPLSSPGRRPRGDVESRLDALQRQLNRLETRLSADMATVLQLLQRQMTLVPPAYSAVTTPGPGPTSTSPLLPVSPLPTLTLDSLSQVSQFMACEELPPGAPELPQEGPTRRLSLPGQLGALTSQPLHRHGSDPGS

Compound: COC(=O)Nc1ccc(-c2c(OC3CCN(C)CC3)nc3c(-c4ccc(OC)c(OC)c4)cnn3c2N)cc1
- IC50 (BaF3): 5 µM
- IC50 (Bcr/Abl fusion protein): 5.1 µM

Compound: COc1ccc(-c2cnn3c(N)c(-c4ccccc4)c(NC4CC(C)(C)N(C)C(C)(C)C4)nc23)cc1OC [listing 1 of 2 here]
- Activity (Rattus norvegicus [1]): Active
- Activity (Rattus norvegicus [2]): Active
- Activity (Rattus norvegicus [3]): Active
- Activity (Rattus norvegicus [4]): Active
- Activity (Rattus norvegicus [5]): Active
- inhibition (Mus musculus [6]): Active
- Activity (LC-2-ad [7]): Active
- inhibition (Mus musculus [8]): inactive

Compound: COc1ccc(-c2cnn3c(N)c(-c4ccccc4)c(NC4CC(C)(C)N(C)C(C)(C)C4)nc23)cc1OC [listing 2 of 2 here]
- AUC at 24 h [9]: 3.2 µM·h
- Cmax [10]: 1100 nM
- half-life [11]: 3.9 h
- clearance [12]: 51 mL/min/kg
- Vd [13]: 13 L/kg
- IC50 (LC-2-ad [14]): 1.5 µM
- solubility at 24 h [15]: 48 µM (≈ 24.7 µg/mL)
- Activity [16]: Toxic
- Activity [17]: Non-Toxic
- Activity [18]: Non-Toxic
- Activity [19]: Non-Toxic
- Activity [20]: Toxic
- Activity [21]: Toxic

- solubility at 24 h [15]: > 175 µM
Compound: COc1ccc(-c2cnn3c(N)c(-c4ccccc4)c(NCCCN(C)C)nc23)cc1OC
- IC50 (LC-2-ad [14]): > 10 µM

- clearance [22]: 19 mL/min/kg
- Vd [23]: 5.1 L/kg
- half-life [24]: 3.7 h
- AUC at 24 h [25]: 2.8 µM·h
- Cmax [26]: 940 nM
- half-life [27]: 3.7 h
- AUC at 24 h [28]: 8.7 µM·h
- Cmax [29]: 820 nM
- bioavailability [30]: 62%
Compound: COC(=O)N1CCN(C(=O)c2ccc(-c3cnn4c(N)c(-c5ccccc5)c(NC5CC(C)(C)N(C)C(C)(C)C5)nc34)cc2)CC1
- IC50 (LC-2-ad [14]): 1.3 µM
- IC50 [31]: 7.5 µM
- IC50 [32]: Not Active
- Activity [33]: Toxic
- Activity [34]: Toxic
- Activity [35]: Non-Toxic
- Activity [36]: Non-Toxic

- solubility at 24 h [15]: 7.1 µM (≈ 3.26 µg/mL)
Compound: COc1ccc(-c2cnn3c(N)c(-c4ccccc4)c(OC4CCN(C)CC4)nc23)cc1OC
- IC50 (BaF3): > 11 µM
- IC50 (Bcr/Abl fusion protein): 0.87 µM
- IC50 (LC-2-ad [14]): 1.6 µM
